In brackets after ≈: the same amount, converted by molar mass. Read-outs that look alike come from different tables or passages of the source.
Experiments:
[1] = test system: Mtb; conditions: cited from earlier work; for inhibition of the growth of Mtb: in words
[2] = test system: M. tuberculosis ATCC 35801 (strain Erdman); assay: Microtiter broth dilution MIC, Mtb Erdman; conditions: for MIC (μg/mL) Mtb: Erdmann strain (ATCC 35801), screening rounds 1 and 2; for MIC (μg/mL) Mtb Erdman: Table 1 panel
[3] = test system: Mtb 56; assay: microbe, parasite or virus in culture; format: cell-based, Mycobacterium tuberculosis; conditions: Mycobacterium tuberculosis, 56, read-out: MIC (μg/mL) Mtb 56
[4] = test system: M. smegmatis (Overexpressing DHFR Strain 2); assay: MIC against M. smegmatis overexpressing DHFR, strain 2; conditions: Mycolicibacterium smegmatis, read-out: MIC (µg/mL) M. smegmatis (Overexpressing DHFR Strain 2)
[5] = test system: M. smegmatis (Overexpressing DHFR Strain 1); assay: MIC against M. smegmatis overexpressing DHFR, strain 1; conditions: Mycolicibacterium smegmatis, read-out: MIC (µg/mL) M. smegmatis (Overexpressing DHFR Strain 1)
[6] = test system: Mtb 352; assay: microbe, parasite or virus in culture; format: cell-based, Mycobacterium tuberculosis; conditions: Mycobacterium tuberculosis, 352, read-out: MIC (μg/mL) Mtb 352
[7] = test system: Mtb C-31; assay: microbe, parasite or virus in culture; format: cell-based; conditions: Mycobacterium tuberculosis, C31, read-out: MIC (μg/mL) Mtb C-31
[8] = test system: M. smegmatis (parent strain); assay: MIC against M. smegmatis parent strain; conditions: Mycolicibacterium smegmatis, read-out: MIC (µg/mL) M. smegmatis (parent strain)
[9] = test system: Mtb 365; assay: microbe, parasite or virus in culture; format: cell-based, Mycobacterium tuberculosis; conditions: Mycobacterium tuberculosis, 365, read-out: MIC (μg/mL) Mtb 365
[10] = test system: Mtb 5; assay: microbe, parasite or virus in culture; format: cell-based, Mycobacterium tuberculosis; conditions: Mycobacterium tuberculosis, 5, read-out: MIC (μg/mL) Mtb 5
[11] = test system: Mtb 276; assay: microbe, parasite or virus in culture; format: cell-based, Mycobacterium tuberculosis; conditions: Mycobacterium tuberculosis, 276, read-out: MIC (μg/mL) Mtb 276
[12] = target: T1, MtbDHFR (Mycobacterium tuberculosis, UniProt P9WNX1); conditions: in words; cited from earlier work
[13] = target: T1, MtbDHFR; assay: biochemical; format: biochemical
[14] = target: T2, HuDHFR (Homo sapiens, UniProt P00374); assay: Human DHFR enzyme inhibition (NADPH oxidation at 340 nm); format: biochemical; conditions: triplicate, mean ± SD
T2 construct: made in house
T2 sequence (P00374 1-187): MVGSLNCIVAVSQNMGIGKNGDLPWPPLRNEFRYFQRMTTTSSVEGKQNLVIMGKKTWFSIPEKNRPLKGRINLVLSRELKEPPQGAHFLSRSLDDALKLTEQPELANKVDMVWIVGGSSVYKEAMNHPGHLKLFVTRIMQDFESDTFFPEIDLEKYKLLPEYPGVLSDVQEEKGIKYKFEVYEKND

T1 sequence (P9WNX1 whole entry): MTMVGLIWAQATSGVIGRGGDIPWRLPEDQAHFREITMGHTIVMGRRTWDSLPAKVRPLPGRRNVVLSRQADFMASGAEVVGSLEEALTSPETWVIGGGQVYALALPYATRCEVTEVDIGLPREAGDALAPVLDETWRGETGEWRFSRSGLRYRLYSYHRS

Row | SMILES | MIC (μg/mL) Mtb [2] [µg/mL] | MIC [3] [µg/mL] | MIC (μg/mL) Mtb Erdman [2] [µg/mL] | MIC [6] [µg/mL] | MIC [7] [µg/mL] | MIC [9] [µg/mL] | MIC [10] [µg/mL] | other results
1 | CN(Cc1cnc2nc(N)nc(N)c2n1)c1ccc(C(=O)N[C@@H](CCC(=O)O)C(=O)O)cc1 [Methotrexate] | – | – | – | – | – | – | – | inhibition of the growth of Mtb [1]: fail to inhibit the growth
2 | CCc1nc(N)nc(N)c1C#C[C@H](C)c1cc(-c2ccc(C(=O)O)cc2)ccc1OC [UCP1163] | 16 (≈ 38.4 µM) | – | – | – | – | – | – | –
3 | CCc1nc(N)nc(N)c1C#CC(C)c1cc(-c2cncn2C)ccc1OC (stereo not shown) [UCP1084] | 2 (≈ 5.31 µM) | 4 (≈ 10.6 µM) | 4 (≈ 10.6 µM) | 4 (≈ 10.6 µM) | 8 (≈ 21.3 µM) | 4 (≈ 10.6 µM) | 4 (≈ 10.6 µM) | MIC [4]: 16 µg/mL (≈ 42.5 µM); MIC [5]: 64 µg/mL (≈ 170 µM); MIC [8]: 1 µg/mL (≈ 2.66 µM); MIC [11]: 4 µg/mL (≈ 10.6 µM)
4 | CCc1nc(N)nc(N)c1C#C[C@H](C)c1cc(-c2ccncc2)ccc1OC [UCP1063] | 2 (≈ 5.36 µM) | – | – | – | – | – | – | –
5 | CCc1nc(N)nc(N)c1C#C[C@H](C)c1cc(OC)cc(-c2ccc(C(=O)O)cc2)c1 [UCP1172] | <0.03 | 0.06 (≈ 0.144 µM) | <0.03 | 0.06 (≈ 0.144 µM) | 8 (≈ 19.2 µM) | < 0.03 | 0.25 (≈ 0.6 µM) | –
6 | COc1cc(Cc2cnc(N)nc2N)cc(OC)c1OC [TMP, reference compound] | 256 (≈ 882 µM) | – | – | – | – | – | – | –
7 | CCc1nc(N)nc(N)c1C#C[C@@H](C)c1cc(-c2ccc(C(=O)O)cc2)ccc1OC [UCP1164] | 0.5 (≈ 1.2 µM) | – | – | – | – | – | – | –
8 | COc1cc(NCc2ccc3nc(N)nc(N)c3c2C)cc(OC)c1OC [Trimetrexate] | 4 (≈ 10.8 µM) | – | – | – | – | – | – | inhibition of the growth of Mtb [1]: fail to inhibit the growth; inhibition of the MtbDHFR enzyme [12]: potent inhibitors
9 | CCc1nc(N)nc(N)c1C#CCc1cc(OC)c(OC)c(-c2ccncc2)c1 [UCP1039] | 32 (≈ 82.2 µM) | – | – | – | – | – | – | IC50 ([13]; triplicate, mean ± SD, read-out: IC50 (nM) MtbDHFR): 297 ± 38 nM; IC50 [14]: 495 ± 58 nM
10 | CCc1nc(N)nc(N)c1-c1ccc(Cl)cc1 [pyrimethamine] | – | – | – | – | – | – | – | inhibition of the growth of Mtb [1]: fail to inhibit the growth; inhibition of the MtbDHFR enzyme [12]: potent inhibitors
11 | Nc1nc(N)c2c(Cl)c(CNc3ccc(C(=O)O)cc3)ccc2n1 [DQn-1] | – | – | – | – | – | – | – | MIC ([1]; Glaxo antifolate collection screen): 0.03 µM; MIC ([1]; Glaxo antifolate library screen): 0.03 µg/mL
12 | CCc1nc(N)nc(N)c1C#C[C@H](C)c1cc2c(c(-c3ccncc3)c1)OCO2 [UCP1098] | 4 (≈ 10.3 µM) | 8 (≈ 20.6 µM) | 8 (≈ 20.6 µM) | 8 (≈ 20.6 µM) | 16 (≈ 41.3 µM) | 4 (≈ 10.3 µM) | 8 (≈ 20.6 µM) | MIC [4]: 32 µg/mL (≈ 82.6 µM); MIC [5]: 64 µg/mL (≈ 165 µM); MIC [8]: 0.5 µg/mL (≈ 1.29 µM); IC50 [13]: 206 ± 6 nM; MIC [11]: 8 µg/mL (≈ 20.6 µM)
13 | CCc1nc(N)nc(N)c1C#CCc1cc(-c2ccc(C(=O)O)cc2)ccc1OC [UCP1106] | 4 (≈ 9.94 µM) | 16 (≈ 39.8 µM) | 16 (≈ 39.8 µM) | 16 (≈ 39.8 µM) | > 32 | 4 (≈ 9.94 µM) | 8 (≈ 19.9 µM) | MIC [4]: > 32 µg/mL; MIC [5]: > 32 µg/mL; MIC [8]: 8 µg/mL (≈ 19.9 µM); MIC [11]: 16 µg/mL (≈ 39.8 µM)
14 | CCc1nc(N)nc(N)c1C#CC(C)c1cc2c(c(-c3cncn3C)c1)OCO2 (stereo not shown) [UCP1102] | 2 (≈ 5.12 µM) | 8 (≈ 20.5 µM) | 4 (≈ 10.2 µM) | 4 (≈ 10.2 µM) | 8 (≈ 20.5 µM) | 8 (≈ 20.5 µM) | 8 (≈ 20.5 µM) | MIC [4]: 32 µg/mL (≈ 82 µM); MIC [5]: 64 µg/mL (≈ 164 µM); MIC [8]: 1 µg/mL (≈ 2.56 µM); MIC [11]: 4 µg/mL (≈ 10.2 µM)
15 | CCc1nc(N)nc(N)c1C#CCc1cc(OC)cc(-c2ccc(C(=O)O)cc2)c1 [UCP1175] | 0.125 (≈ 0.311 µM) | 0.5 (≈ 1.24 µM) | 0.5 (≈ 1.24 µM) | 0.5 (≈ 1.24 µM) | 8 (≈ 19.9 µM) | 0.125 (≈ 0.311 µM) | 2 (≈ 4.97 µM) | IC50 ([13]; IC50 (nM) MtbDHFR): 460 ± 50 nM
16 | NNC(=O)c1ccncc1 [INH, Isoniazid, reference compound] | 0.03 (≈ 0.219 µM) | 1 (≈ 7.29 µM) | 0.125 (≈ 0.911 µM) | 1 (≈ 7.29 µM) | 4 (≈ 29.2 µM) | 2 (≈ 14.6 µM) | 4 (≈ 29.2 µM) | –
